Measured values reported in patent US9133104B2 (Chroma Therapeutics Ltd., priority 2005, dated 2015).

How the values were obtained:
[1] = biological target: T1, histone deacetylase activity (HeLa nuclear extract); experiment: HDAC fluorescent activity assay (Biomol Fluor de Lys), HeLa nuclear extract; type: biochemical; conditions: Fluor de Lys substrate, IC50 range
T1 construct: Histone deacetylase activity from crude nuclear extract derived from HeLa cells was used for screening
Method in brief: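 Crude HeLa nuclear extract (20 mM Hepes, 100 mM KCl, 0.2 mM EDTA, 0.5 mM DTT, 0.2 mM PMSF, 20% glycerol) incubated with acetyl-lysine Fluor de Lys substrate ± inhibitor; developer generates fluorophore. Background-subtracted % of vehicle control; IC50 from eight-point variable-slope sigmoidal fit.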

U937 cancer cell line = experiment: Cell inhibition assay (SRB cell viability), U937; type: cell-based; conditions: Homo sapiens, U-937, U937 cells, 72 h, IC50 range
Description: (§1) The corresponding cancer cell lines (Hela, U937 and HUT) growing in log phase were harvested and seeded at 1000 cells/well (200 ul final volume) into 96-well tissue culture plates. Following 24 h of cell growth cells were treated with compounds (final concentration of 20 uM). Plates were then re-incubated for a further 72 h before a sulphorhodamine B (SRB) cell viability assay was conducted according to Skehan 1990 J Natl Canc Inst 82, 1107-1112.
(§2) Data were expressed as a percentage inhibition of the control, measured in the absence of inhibitor, as follows:— % inhibition=100−((S^i/S^o)×100) where S^i is the signal in the presence of inhibitor and S^o is the signal in the presence of DMSO. IC50 values were determined by non-linear regression analysis, after fitting the results of eight data points to the equation for sigmoidal dose response with variable slope (% activity against log concentration of compound), using Graphpad Prism software. […] NT=Not tested

HUT cancer cell line = experiment: Cell inhibition assay (SRB cell viability), HUT; type: cell-based; conditions: HUT cells, 72 h, IC50 range
Description: as §1, §2

Hela cancer cell line = experiment: Cell inhibition assay (SRB cell viability), Hela; type: cell-based; conditions: Homo sapiens, HeLa, 72 h, Hela cells, IC50 range
Method in brief: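 Log-phase Hela, U937 and HUT cells were seeded at 1000 cells/well, grown 24 h, then exposed to compound (20 uM final) for 72 h. Viability was read by sulphorhodamine B staining and expressed as % inhibition relative to DMSO control. IC50 values came from sigmoidal variable-slope fits of eight concentrations.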

| SMILES | IC50 [1] [µM] | IC50 (U937 cancer cell line) [µM] | IC50 (HUT cancer cell line) [µM] | IC50 (Hela cancer cell line) [µM] |
| --- | --- | --- | --- | --- |
| O=C(CCCCCCC(=O)N1CCc2c([nH]c3ccc(OCC(=O)N[C@H](C(=O)OC4CCCC4)c4ccccc4)cc23)C1)NO [Compound 24, (S)-{2-[2-(7-Hydroxycarbamoyl-heptanoyl)-2,3,4,9-tetrahydro-1H-beta-carbolin-6-yloxy]-acetylamino}-phenyl-acetic acid cyclopentyl ester] | 0.101 to 1 | > 3.3 | 0.33 to 3.3 | > 3.3 |
| O=C(CCCCCCC(=O)N1CCc2c([nH]c3ccc(OCC(=O)N[C@H](C(=O)O)c4ccccc4)cc23)C1)NO [Compound 25] | 0.101 to 1 | > 3.3 | > 3.3 | > 3.3 |
| CCOC(=O)[C@H](Cc1ccccc1)NCc1cccc(NC(=O)CCCCCCC(=O)NO)c1 [Compound 26, (S)-2-[3-(7-Hydroxycarbamoyl-heptanoylamino)-benzylamino]-3-phenyl-propionic acid ethyl ester] | < 0.1 | 0.33 to 3.3 | 0.33 to 3.3 | 0.33 to 3.3 |
| O=C(CCCCCCC(=O)Nc1cccc(CN[C@@H](Cc2ccccc2)C(=O)OC2CCCC2)c1)NO [Compound 28, (S)-2-[3-(7-Hydroxycarbamoyl-heptanoylamino)-benzylamino]-3-phenyl-propionic acid cyclopentyl ester] | 0.101 to 1 | 0.33 to 3.3 | 0.33 to 3.3 | 0.33 to 3.3 |
| CCOC(=O)[C@H](CCc1ccccc1)NCc1cccc(NC(=O)CCCCCCC(=O)NO)c1 [Compound 29, (S)-2-[3-(7-Hydroxycarbamoyl-heptanoylamino)-benzylamino]-4-phenyl-butyric acid ethyl ester] | 0.101 to 1 | 0.33 to 3.3 | 0.33 to 3.3 | 0.33 to 3.3 |
| O=C(CCCCCCC(=O)Nc1cccc(CN[C@@H](CCc2ccccc2)C(=O)OC2CCCC2)c1)NO [Compound 31, (S)-2-[3-(7-Hydroxycarbamoyl-heptanoylamino)-benzylamino]-4-phenyl-butyric acid cyclopentyl ester] | 0.101 to 1 | < 0.33 | 0.33 to 3.3 | 0.33 to 3.3 |
| CC(C)(C)OC[C@H](NCc1cccc(NC(=O)CCCCCCC(=O)NO)c1)C(=O)OC1CCCC1 [Compound 34, (S)-3-tert-Butoxy-2-[3-(7-hydroxycarbamoyl-heptanoylamino)-benzylamino]-propionic acid cyclopentyl ester] | 0.101 to 1 | < 0.33 | 0.33 to 3.3 | 0.33 to 3.3 |
| CC(C)(C)OC(=O)[C@@H](NCc1cccc(NC(=O)CCCCCCC(=O)NO)c1)c1ccccc1 [Compound 35, (S)-[3-(7-Hydroxycarbamoyl-heptanoylamino)-benzylamino]-phenyl-acetic acid tert-butyl ester] | 0.101 to 1 | 0.33 to 3.3 | 0.33 to 3.3 | 0.33 to 3.3 |
| O=C(CCCCCCC(=O)Nc1cccc(CN[C@H](C(=O)OC2CCCC2)c2ccccc2)c1)NO [Compound 36, (S)-[3-(7-Hydroxycarbamoyl-heptanoylamino)-benzylamino]-phenyl-acetic acid cyclopentyl ester] | < 0.1 | < 0.33 | 0.33 to 3.3 | 0.33 to 3.3 |
| O=C(CCCCCCC(=O)Nc1cccc(CN[C@H](C(=O)O)c2ccccc2)c1)NO [Compound 37, (S)-[3-(7-Hydroxycarbamoyl-heptanoylamino)-benzylamino]-phenyl-acetic acid] | 0.101 to 1 | > 3.3 | > 3.3 | > 3.3 |
| O=C(CCCCCCC(=O)Nc1ccccc1CN[C@H](C(=O)OC1CCCC1)c1ccccc1)NO [Compound 40, (S)-[2-(7-Hydroxycarbamoyl-heptanoylamino)-benzylamino]-phenyl-acetic acid cyclopentyl ester] | > 1 | > 3.3 | > 3.3 | > 3.3 |
| O=C(CCCCCCC(=O)Nc1ccccc1CN[C@H](C(=O)O)c1ccccc1)NO [Compound 41, (S)-[2-(7-Hydroxycarbamoyl-heptanoylamino)-benzylamino]-phenyl-acetic acid] | > 1 | > 3.3 | > 3.3 | > 3.3 |
| O=C(CCCCCCC(=O)N1CCc2c([nH]c3ccccc23)C1CN[C@H](C(=O)OC1CCCC1)c1ccccc1)NO (stereo partly drawn) [Compound 42, (S)-{[2-(7-Hydroxycarbamoyl-heptanoyl)-2,3,4,9-tetrahydro-1H-beta-carbolin-1-ylmethyl]-amino}-phenyl-acetic acid cyclopentyl ester] | > 1 | 0.33 to 3.3 | 0.33 to 3.3 | 0.33 to 3.3 |
| O=C(CCCCCCC(=O)N1CCc2c([nH]c3ccccc23)C1CN[C@H](C(=O)O)c1ccccc1)NO (stereo partly drawn) [Compound 43, (S)-{[2-(7-Hydroxycarbamoyl-heptanoyl)-2,3,4,9-tetrahydro-1H-beta-carbolin-1-ylmethyl]-amino}-phenyl-acetic acid] | 0.101 to 1 | > 3.3 | > 3.3 | > 3.3 |
| O=C(CCCCCCC(=O)N1Cc2ccccc2C[C@H]1C(=O)N[C@H](C(=O)OC1CCCC1)c1ccccc1)NO [Compound 44, (S)-{[(S)-2-(7-Hydroxycarbamoyl-heptanoyl)-1,2,3,4-tetrahydro-isoquinoline-3-carbonyl]-amino}-phenyl-acetic acid cyclopentyl ester] | 0.101 to 1 | 0.33 to 3.3 | 0.33 to 3.3 | > 3.3 |
| CCOC(=O)[C@@H](NC(=O)[C@@H]1Cc2ccccc2CN1C(=O)CCCCCCC(=O)NO)c1ccccc1 [Compound 46, (S)-{[(S)-2-(7-Hydroxycarbamoyl-heptanoyl)-1,2,3,4-tetrahydro-isoquinoline-3-carbonyl]-amino}-phenyl-acetic acid ethyl ester] | > 1 | 0.33 to 3.3 | 0.33 to 3.3 | > 3.3 |
| CCOC(=O)[C@H](Cc1ccccc1)NC(=O)[C@@H]1Cc2ccccc2CN1C(=O)CCCCCCC(=O)NO [Compound 47, (S)-2-{[(S)-2-(7-Hydroxycarbamoyl-heptanoyl)-1,2,3,4-tetrahydro-isoquinoline-3-carbonyl]-amino}-3-phenyl-propionic acid ethyl ester] | 0.101 to 1 | 0.33 to 3.3 | 0.33 to 3.3 | > 3.3 |
| O=C(CCCCCCC(=O)N1Cc2ccccc2C[C@H]1C(=O)N[C@@H](Cc1ccccc1)C(=O)O)NO [Compound 48, (S)-2-{[(S)-2-(7-Hydroxycarbamoyl-heptanoyl)-1,2,3,4-tetrahydro-isoquinoline-3-carbonyl]-amino}-3-phenyl-propionic acid] | > 1 | 0.33 to 3.3 | 0.33 to 3.3 | > 3.3 |
| CCOC(=O)[C@H](CC(C)C)NC(=O)[C@@H]1Cc2ccccc2CN1C(=O)CCCCCCC(=O)NO [Compound 50, (S)-2-{[(S)-2-(7-Hydroxycarbamoyl-heptanoyl)-1,2,3,4-tetrahydro-isoquinoline-3-carbonyl]-amino}-4-methyl-pentanoic acid ethyl ester] | > 1 | 0.33 to 3.3 | 0.33 to 3.3 | > 3.3 |
| CC(C)C[C@H](NC(=O)[C@@H]1Cc2ccccc2CN1C(=O)CCCCCCC(=O)NO)C(=O)OC1CCCC1 [Compound 51, (S)-2-{[(S)-2-(7-Hydroxycarbamoyl-heptanoyl)-1,2,3,4-tetrahydro-isoquinoline-3-carbonyl]-amino}-4-methyl-pentanoic acid cyclopentyl ester] | 0.101 to 1 | 0.33 to 3.3 | 0.33 to 3.3 | > 3.3 |
| O=C(CCCCCCC(=O)N1CCCC1C(=O)N[C@H](C(=O)OC1CCCC1)c1ccccc1)NO (stereo partly drawn) [Compound 53, (S)-{[1-(7-Hydroxycarbamoyl-heptanoyl)-pyrrolidine-2-carbonyl]-amino}-phenyl-acetic acid cyclopentyl ester] | > 1 | > 3.3 | > 3.3 | > 3.3 |
| CCOC(=O)[C@H](Cc1ccccc1)NC(=O)C1CCCN1C(=O)CCCCCCC(=O)NO (stereo partly drawn) [Compound 55, (S)-2-{[1-(7-Hydroxycarbamoyl-heptanoyl)-pyrrolidine-2-carbonyl]-amino}-3-phenyl-propionic acid ethyl ester] | > 1 | > 3.3 | > 3.3 | > 3.3 |
| O=C(CCCCCCC(=O)N1CCCC1C(=O)N[C@@H](Cc1ccccc1)C(=O)OC1CCCC1)NO (stereo partly drawn) [Compound 56, (S)-2-{[1-(7-Hydroxycarbamoyl-heptanoyl)-pyrrolidine-2-carbonyl]-amino}-3-phenyl-propionic acid cyclopentyl ester] | > 1 | > 3.3 | > 3.3 | > 3.3 |
